# In PMC7979765, “trans-Translation inhibitors bind to a novel site on the ribosome and clear Neisseria gonorrhoeae in vivo” (Nature Communications, 2021):
# Several values for one entry are separate records, joined by “and”; a condition that tells them apart may be missing. Equal entries are not always repeated. Where two headings read alike, the source gives them in different places.
# Tests used:
# [1] = target: T1, Cholecystokinin CKK1 (CCKA) (Homo sapiens, UniProt P32238); assay: Receptor Profiling 218030; assay type: binding
# T1 construct: purchased Eurofins Discovery Services (Panlabs safety panel)
# Description: (§1) Several in vitro selectivity assays were performed at Eurofins Discovery Services using established methods and controls that behaved as expected (Supplementary Tables 5 and 6). […] For receptor panel profiling, MBX-4132 was evaluated at 10 μM and activity of >50% (agonist or antagonist; note that negative % inhibition indicates agonism) was scored as active.
# [2] = test system: reactive oxygen species (ROS) generation; assay: Multiplexed cytotoxicity assay (nuclei, ROS, TMRE); assay type: cell-based, human; conditions: human, primary hepatocytes, 24 h
# Description: (§2) Multiplexed cytotoxicity assay — Human primary hepatocytes were grown on collagen I coated optical plates, cultured in hepatocytes culture media in a humidified 5% CO2 atmosphere at 37 °C. Cells were incubated in the presence of MBX-4132 at 10 concentrations starting a 100 µM and serially diluted 3.16-fold for 24 h at 37 °C, incubated for 30 min with multiplexed fluorescent dyes (Hoescht, 6-carboxy-2’,7’-dichlorodihydrofluorescein diazetat, and TMRE) and imaged to allow visualization of nuclei, reactive oxygen species generation, and mitochondrial oxidation. A >3.5-fold induction of ROS was considered consistent with formation of ROS and a >2-fold change in TMRE signal indicated an increase or decrease in mitochondrial membrane potential.
# [3] = Multiplexed cytotoxicity assay (nuclei, ROS, TMRE); assay type: cell-based, human; conditions: human, human primary hepatocytes; for fold induction at 24 h, 1 μM: 1.00E+00 μM; for fold induction at 24 h, 10 μM: 1.00E+01 μM; for fold induction at 24 h, 100 μM: 1.00E+02 μM; for fold induction at 24 h, 0.1 μM: 1.00E-01 μM; for fold induction at 24 h, 0.0101 μM: 1.01E-02 μM; for fold induction at 24 h, 31.6 μM: 3.16E+01 μM; for fold induction at 24 h, 3.17 μM: 3.17E+00 μM; for fold induction at 24 h, 0.317 μM: 3.17E-01 μM; for fold induction at 24 h, 0.0318 μM: 3.18E-02 μM; for fold induction at 24 h, 0.00318 μM: 3.18E-03 μM
# Description: as §2
# [4] = test system: Human primary hepatocytes; assay: Multiplexed cytotoxicity assay (nuclei, ROS, TMRE); assay type: cell-based
# Description: as §2
# [5] = test system: mitochondrial membrane potential (MMP, TMRE signal); assay: Multiplexed cytotoxicity assay (nuclei, ROS, TMRE); assay type: cell-based, human; conditions: human, primary hepatocytes, 24 h, read-out: MMP inhibition (fold induction)
# Description: as §2
# [6] = target: T2, Transporter, Norepinephrine (NET) (Homo sapiens, UniProt P23975); assay: Receptor Profiling 204410; assay type: binding
# T2 construct: purchased Eurofins Discovery Services 204410
# Description: as §1
# [7] = Mitochondrial toxicity assay, glucose vs galactose; assay type: cell-based; conditions: human, HepG2; for viability at 24 h, 100 µM: Conc. (μM) 1.00E-04; for viability at 24 h, 3 µM: Conc. (μM) 3.00E-06
# Description: (§3) Mitochondrial toxicity assay — HepG2 cells (ATCC) were seeded and cultured in media containing either glucose or galactose overnight. Test compounds were added at 8 concentrations ([…] from 100 µM to 30 nM) and incubated with the cells for 24 h. Cell viability was measured by the alamarBlue method. The data in Supplementary Table 7 are inconsistent with MBX-4132 disrupting mitochondrial metabolic processes. Assays were performed at Eurofins Cerep Panlabs.
# HepG2 cells = assay: Mitochondrial toxicity assay, glucose vs galactose; assay type: cell-based; conditions: for % viability: HepG2, replicates
# Description: as §3
# Adenosine A2A = target: T3, Adenosine A2A (Homo sapiens, UniProt P29274); assay: Receptor Profiling 200610; assay type: binding
# T3 construct: purchased Eurofins Discovery Services (Panlabs safety panel)
# Description: as §1
# Muscarinic M3 = target: T4, Muscarinic M3 (Homo sapiens, UniProt P20309); assay: Receptor Profiling 252810; assay type: binding
# T4 construct: purchased Eurofins Discovery Services (Panlabs safety panel)
# Description: as §1
# [8] = target: T5, Serotonin (5-hydroxytryptamine) 5-HT2A (Homo sapiens, UniProt P28223); assay: Receptor Profiling 271650; assay type: binding
# T5 construct: purchased Eurofins Discovery Services (Panlabs safety panel)
# Description: as §1
# CYP2B6 = target: T6, CYP2B6 (Homo sapiens, UniProt P20813); assay: Cyp inhibition assay 4877; assay type: in vitro ADME; conditions: catalog reference 4877, read-out: pIC50 (µM) reported (converted)
# T6 construct: Eurofins Discovery Services (contract assay) 4877
# Description: as §1
# [9] = Serum protein binding, rat; assay type: in vitro ADME; conditions: Eurofins; for fraction unbound: rat, serum, read-out: Serum binding (% bound) Rat (converted)
# Description: Serum protein binding was determined using an equilibrium dialysis method as described. The amount of compound in each chamber (buffer and serum) was measured using methods for reverse-phase liquid chromatography/mass spectroscopy methods that were customized for each compound.
# CYP3A = CYP3A (Homo sapiens, UniProt P08684); assay: Cyp inhibition assays 4873, 4872; assay type: in vitro ADME
# Description: as §1
# [10] = read-out: Mean MMP inhibition (fold induction)
# [11] = read-out: Mean ROS (fold induction)
# [12] = HepG2 cells, Galactcose, read-out: Mean % viability
# [13] = HepG2 cells, Galactcose, replicates, read-out: % viability
# [14] = HepG2 cells, Glucose, read-out: Mean % viability
# [15] = HepG2 cells, Glucose, replicates, read-out: % viability
# Sequence of CYP3A (P08684 2-503): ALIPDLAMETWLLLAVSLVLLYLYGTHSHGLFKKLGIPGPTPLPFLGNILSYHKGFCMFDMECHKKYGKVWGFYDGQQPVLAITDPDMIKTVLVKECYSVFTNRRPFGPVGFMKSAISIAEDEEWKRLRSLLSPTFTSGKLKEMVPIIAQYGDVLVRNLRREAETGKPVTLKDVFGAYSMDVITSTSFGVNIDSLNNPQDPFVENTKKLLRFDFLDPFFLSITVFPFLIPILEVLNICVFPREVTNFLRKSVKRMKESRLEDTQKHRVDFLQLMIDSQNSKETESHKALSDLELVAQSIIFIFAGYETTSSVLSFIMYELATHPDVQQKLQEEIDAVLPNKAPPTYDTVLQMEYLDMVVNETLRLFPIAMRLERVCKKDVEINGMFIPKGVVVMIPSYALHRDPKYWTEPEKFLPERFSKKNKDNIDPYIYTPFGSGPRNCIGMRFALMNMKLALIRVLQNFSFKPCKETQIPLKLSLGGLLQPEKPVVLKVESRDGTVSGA
# T3 sequence (P29274 whole entry): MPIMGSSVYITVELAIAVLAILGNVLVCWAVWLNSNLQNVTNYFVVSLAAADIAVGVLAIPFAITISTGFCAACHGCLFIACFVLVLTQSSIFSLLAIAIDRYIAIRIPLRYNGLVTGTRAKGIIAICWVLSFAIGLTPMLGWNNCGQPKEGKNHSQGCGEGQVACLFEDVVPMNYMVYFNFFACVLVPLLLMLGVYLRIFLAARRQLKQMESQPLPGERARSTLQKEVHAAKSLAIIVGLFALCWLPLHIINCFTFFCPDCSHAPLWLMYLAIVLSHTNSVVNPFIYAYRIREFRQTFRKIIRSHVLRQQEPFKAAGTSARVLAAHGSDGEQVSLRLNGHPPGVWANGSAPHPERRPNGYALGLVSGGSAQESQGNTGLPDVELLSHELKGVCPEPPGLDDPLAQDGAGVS
# T2 sequence (P23975 whole entry): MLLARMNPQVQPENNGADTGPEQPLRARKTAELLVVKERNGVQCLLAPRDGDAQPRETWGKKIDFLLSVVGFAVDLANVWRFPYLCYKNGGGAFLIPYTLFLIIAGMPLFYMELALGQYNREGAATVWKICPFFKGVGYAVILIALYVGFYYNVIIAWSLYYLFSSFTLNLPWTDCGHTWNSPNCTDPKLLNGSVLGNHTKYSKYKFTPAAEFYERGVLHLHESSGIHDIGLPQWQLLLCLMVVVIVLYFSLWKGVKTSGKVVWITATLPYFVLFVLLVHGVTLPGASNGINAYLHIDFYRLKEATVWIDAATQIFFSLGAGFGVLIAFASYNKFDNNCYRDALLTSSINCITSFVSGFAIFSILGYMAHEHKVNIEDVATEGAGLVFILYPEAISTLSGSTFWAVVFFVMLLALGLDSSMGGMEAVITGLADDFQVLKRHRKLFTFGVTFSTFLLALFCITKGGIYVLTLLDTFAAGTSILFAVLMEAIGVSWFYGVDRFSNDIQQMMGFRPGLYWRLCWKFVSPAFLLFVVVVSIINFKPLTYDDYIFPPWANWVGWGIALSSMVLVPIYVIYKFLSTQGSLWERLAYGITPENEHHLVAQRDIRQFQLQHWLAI
# T1 sequence (P32238 whole entry): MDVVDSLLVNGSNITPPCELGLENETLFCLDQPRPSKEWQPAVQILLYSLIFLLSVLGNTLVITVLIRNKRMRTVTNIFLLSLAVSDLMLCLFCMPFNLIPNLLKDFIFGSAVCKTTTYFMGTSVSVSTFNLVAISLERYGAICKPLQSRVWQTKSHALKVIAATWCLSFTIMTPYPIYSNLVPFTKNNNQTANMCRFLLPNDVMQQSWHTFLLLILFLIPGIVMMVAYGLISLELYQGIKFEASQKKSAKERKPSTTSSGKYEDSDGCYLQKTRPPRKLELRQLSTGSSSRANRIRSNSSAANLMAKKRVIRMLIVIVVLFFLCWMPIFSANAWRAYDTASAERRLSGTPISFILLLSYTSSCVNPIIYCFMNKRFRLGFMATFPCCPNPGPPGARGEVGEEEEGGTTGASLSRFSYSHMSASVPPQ
# T5 sequence (P28223 whole entry): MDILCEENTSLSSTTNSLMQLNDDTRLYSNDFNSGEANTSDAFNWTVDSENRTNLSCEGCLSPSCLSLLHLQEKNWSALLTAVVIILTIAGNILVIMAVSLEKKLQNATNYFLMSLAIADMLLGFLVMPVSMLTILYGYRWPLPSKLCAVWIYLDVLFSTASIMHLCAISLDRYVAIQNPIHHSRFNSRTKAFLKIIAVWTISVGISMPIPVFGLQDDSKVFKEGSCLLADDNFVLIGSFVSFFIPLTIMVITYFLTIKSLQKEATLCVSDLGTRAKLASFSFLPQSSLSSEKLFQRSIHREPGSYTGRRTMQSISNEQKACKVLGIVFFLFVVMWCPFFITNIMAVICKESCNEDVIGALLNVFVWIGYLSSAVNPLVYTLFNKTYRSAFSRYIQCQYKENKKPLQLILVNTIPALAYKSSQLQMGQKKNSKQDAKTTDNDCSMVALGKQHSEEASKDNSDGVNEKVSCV
# T6 sequence (P20813 whole entry): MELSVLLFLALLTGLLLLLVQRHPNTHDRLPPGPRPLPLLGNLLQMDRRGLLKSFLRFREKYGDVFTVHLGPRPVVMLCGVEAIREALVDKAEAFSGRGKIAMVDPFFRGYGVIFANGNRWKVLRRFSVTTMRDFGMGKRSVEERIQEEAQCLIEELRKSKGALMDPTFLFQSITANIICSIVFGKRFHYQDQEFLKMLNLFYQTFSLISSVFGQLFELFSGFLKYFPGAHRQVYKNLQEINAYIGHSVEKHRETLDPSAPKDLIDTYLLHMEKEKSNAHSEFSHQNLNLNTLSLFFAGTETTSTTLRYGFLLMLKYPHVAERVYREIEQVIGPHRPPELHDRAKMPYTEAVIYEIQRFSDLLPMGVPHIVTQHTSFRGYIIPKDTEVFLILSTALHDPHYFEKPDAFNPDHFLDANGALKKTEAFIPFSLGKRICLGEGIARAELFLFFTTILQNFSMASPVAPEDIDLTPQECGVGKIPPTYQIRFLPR
# T4 sequence (P20309 whole entry): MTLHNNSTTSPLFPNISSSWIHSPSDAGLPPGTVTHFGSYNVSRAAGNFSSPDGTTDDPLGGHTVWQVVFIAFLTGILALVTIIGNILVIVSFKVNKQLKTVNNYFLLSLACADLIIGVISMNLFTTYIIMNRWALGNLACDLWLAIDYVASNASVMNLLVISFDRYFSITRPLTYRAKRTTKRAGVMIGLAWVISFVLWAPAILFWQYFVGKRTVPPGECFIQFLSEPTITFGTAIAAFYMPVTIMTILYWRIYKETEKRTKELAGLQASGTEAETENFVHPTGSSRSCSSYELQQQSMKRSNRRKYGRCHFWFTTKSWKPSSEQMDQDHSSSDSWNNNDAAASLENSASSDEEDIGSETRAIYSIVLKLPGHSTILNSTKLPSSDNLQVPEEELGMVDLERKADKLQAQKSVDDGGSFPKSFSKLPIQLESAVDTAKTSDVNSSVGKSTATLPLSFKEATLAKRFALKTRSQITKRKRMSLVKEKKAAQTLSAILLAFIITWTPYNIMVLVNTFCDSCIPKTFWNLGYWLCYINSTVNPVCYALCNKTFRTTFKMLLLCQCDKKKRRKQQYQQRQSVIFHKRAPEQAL
smiles,measurement,setting,value
O=C(Nc1nnc(-c2ccc(F)cc2)o1)N1CCc2ccccc2C1 [MBX-4132],inhibition at 10 µM,[1],66%
same,"fold induction at 24 h, 1 μM",[2]; 1.00E+00 μM,1.2
same,"fold induction at 24 h, 0.1 μM",[2]; 1.00E-01 μM,1.4
same,"fold induction at 24 h, 0.0101 μM",[2]; 1.01E-02 μM,1.4
same,"fold induction at 24 h, 3.17 μM",[2]; 3.17E+00 μM,1.1
same,"fold induction at 24 h, 0.317 μM",[2]; 3.17E-01 μM,1.2
same,"fold induction at 24 h, 0.0318 μM",[2]; 3.18E-02 μM,0.9
same,"fold induction at 24 h, 1 μM",[3]; [10],0.9
same,"fold induction at 24 h, 1 μM",[3]; [11],1.2
same,"fold induction at 24 h, 10 μM",[3]; [10],1.1
same,"fold induction at 24 h, 10 μM",[3]; [11],1.9
same,"fold induction at 24 h, 100 μM",[3]; [10],0.8
same,"fold induction at 24 h, 100 μM",[3]; [11],9.2
same,"fold induction at 24 h, 0.1 μM",[3]; [10],1.2
same,"fold induction at 24 h, 0.1 μM",[3]; [11],1.4
same,"fold induction at 24 h, 0.0101 μM",[3]; [10],1
same,"fold induction at 24 h, 0.0101 μM",[3]; [11],1.4
same,"fold induction at 24 h, 31.6 μM",[3]; [10],1.1
same,"fold induction at 24 h, 31.6 μM",[3]; [11],1.3
same,"fold induction at 24 h, 3.17 μM",[3]; [10],1
same,"fold induction at 24 h, 3.17 μM",[3]; [11],1.1
same,"fold induction at 24 h, 0.317 μM",[3]; [10],0.9
same,"fold induction at 24 h, 0.317 μM",[3]; [11],1.2
same,"fold induction at 24 h, 0.0318 μM",[3]; [10],0.9
same,"fold induction at 24 h, 0.0318 μM",[3]; [11],0.9
same,"fold induction at 24 h, 0.00318 μM",[3]; [10],1
same,"fold induction at 24 h, 0.00318 μM",[3]; [11],3.1
same,Attached live cells (%),"[4]; 1.00E+00 μM, 24 h",106.3%
same,Attached live cells (%),"[4]; 1.00E+00 μM, replicates",108.6% and 104.0%
same,Attached live cells (%),"[4]; 1.00E+01 μM, 24 h",97.7%
same,Attached live cells (%),"[4]; 1.00E+01 μM, replicates",104.3% and 91.1%
same,Attached live cells (%),"[4]; 1.00E+02 μM, 24 h",69.6%
same,Attached live cells (%),"[4]; 1.00E+02 μM, replicates",78.3% and 60.9%
same,Attached live cells (%),"[4]; 1.00E-01 μM, 24 h",96.7%
same,Attached live cells (%),"[4]; 1.00E-01 μM, replicates",101.6% and 91.8%
same,Attached live cells (%),"[4]; 1.01E-02 μM, 24 h",109.5%
same,Attached live cells (%),"[4]; 1.01E-02 μM, replicates",115.4% and 103.6%
same,Attached live cells (%),"[4]; 3.16E+01 μM, 24 h",89.5%
same,Attached live cells (%),"[4]; 3.16E+01 μM, replicates",92.0% and 87.0%
same,Attached live cells (%),"[4]; 3.17E+00 μM, 24 h",99.6%
same,Attached live cells (%),"[4]; 3.17E+00 μM, replicates",103.9% and 95.3%
same,Attached live cells (%),"[4]; 3.17E-01 μM, 24 h",114.0%
same,Attached live cells (%),"[4]; 3.17E-01 μM, replicates",124.2% and 103.8%
same,Attached live cells (%),"[4]; 3.18E-02 μM, 24 h",97.5%
same,Attached live cells (%),"[4]; 3.18E-02 μM, replicates",106.1% and 88.9%
same,Attached live cells (%),"[4]; 3.18E-03 μM, 24 h",105.6%
same,Attached live cells (%),"[4]; 3.18E-03 μM, replicates",110.9% and 100.3%
same,effect on mitochondrial membrane polarity (in words),"[4]; high concentrations, human hepatocytes",no effect
same,"fold induction at 24 h, 1 μM",[5]; 1.00E+00 μM,0.9
same,"fold induction at 24 h, 10 μM",[5]; 1.00E+01 μM,1.1
same,"fold induction at 24 h, 0.1 μM",[5]; 1.00E-01 μM,1.2
same,"fold induction at 24 h, 0.0101 μM",[5]; 1.01E-02 μM,1
same,"fold induction at 24 h, 31.6 μM",[5]; 3.16E+01 μM,1.1
same,"fold induction at 24 h, 3.17 μM",[5]; 3.17E+00 μM,1
same,"fold induction at 24 h, 0.317 μM",[5]; 3.17E-01 μM,0.9
same,"fold induction at 24 h, 0.0318 μM",[5]; 3.18E-02 μM,0.9
same,"fold induction at 24 h, 0.00318 μM",[5]; 3.18E-03 μM,1
same,inhibition at 10 µM,[6],6%
same,"viability at 24 h, 1e-05 μM","[7]; Glucose, Conc. (μM) 1.00E-05, replicates",108%
same,"viability at 24 h, 100 µM",[7]; [12],64%
same,"viability at 24 h, 100 µM",[7]; [13],65.3%
same,"viability at 24 h, 10 µM","[7]; HepG2 cells, Galactcose, Conc. (μM) 1.00E-05",95.4%
same,"viability at 24 h, 3 µM",[7]; [12],94.1%
same,"viability at 24 h, 3 µM",[7]; [13],93.9%
same,"viability at 24 h, 30 µM","[7]; HepG2 cells, Galactose, Conc. (μM) 3.00E-05, 24 h",96.8%
same,"viability at 24 h, 100 µM",[7]; [14],81.9%
same,"viability at 24 h, 100 µM",[7]; [15],78.3%
same,"viability at 24 h, 10 µM","[7]; HepG2 cells, Glucose, Conc. (μM) 1.00E-05",108%
same,"viability at 24 h, 3 µM",[7]; [14],110%
same,"viability at 24 h, 3 µM",[7]; [15],116%
same,% viability,"HepG2 cells; Galactcose, Conc. (μM) 1.00E-04",62.7%
same,% viability,"HepG2 cells; Galactcose, Conc. (μM) 3.00E-05",99.1%
same,% viability,"HepG2 cells; Galactcose, Conc. (μM) 3.00E-06",94.2%
same,% viability,"HepG2 cells; Glucose, Conc. (μM) 1.00E-04",85.6%
same,% viability,"HepG2 cells; Glucose, Conc. (μM) 1.00E-05",107.5%
same,% viability,"HepG2 cells; Glucose, Conc. (μM) 3.00E-05",106.5%
same,% viability,"HepG2 cells; Glucose, Conc. (μM) 3.00E-06",103.0%
same,differential toxicity glucose vs galactose (in words),HepG2 cells; HepG2 cells,did not induce differential toxicity
same,inhibition at 10 µM,Adenosine A2A,42%
same,inhibition at 10 µM,Muscarinic M3,5%
same,inhibition at 10 µM,[8],18%
same,IC50,CYP2B6,> 100 µM
same,Serum binding (% bound) Rat,[9]; Replicate 1/2,99.9% and 85.2%
same,fraction unbound,[9]; Reported value,0.07
same,fraction unbound,[9]; Average Value,0.074
same,pIC50 (µM) reported,"CYP3A; CYP3A midazolam, catalog reference 4873",No activity
same,IC50,"CYP3A; human, probe testosterone",> 100 µM
